Test results from patent publication US20170343551A1, “METHOD OF DIAGNOSING AND TREATING PROSTATE CANCER” (Board of Supervisors of Louisiana State University and …, priority 2016, published 2017).

Key:
Assay type in all cases: cell-based
[1] = tested on: PC3 cells; assay: Cell migration ability of PC3 cells; conditions: FIG. 8C
From the text: (§1) FIGS. 8A-8C show SPDEF is subjected to DNA methylation regulation.
(§2) Both culture and socioeconomic status can affect epigenetic processes; and the epigenetic modification effects can extend not only throughout the life course, but also to generations followed. DNA methylation and histone modifications are two common epigenetic mechanisms that control the expression of affected genes. […] Concomitant with the increased levels of SPDEF, 5-aza treatments reduced the cell migration and invasion ability of PC3 cells. Additionally, the inventors have also examined the distribution of CpG islands in the proximal promoter region of SPDEF. […] Expected treatment levels include, for example, azacytidine 2.5 mg/kg and decitabine 2.5 mg/kg.

[2] = tested on: TMS1 in PC3 cells; assay: TMS1 expression (methylation-repressed positive control gene) in treated PC3 cells; conditions: known methylation-repressed gene as positive control, FIG. 8A
From the text: as §1

[3] = tested on: SPDEF mRNA in PC3 cells; assay: SPDEF (PDEF) mRNA expression by RT-PCR in treated PC3 cells; conditions: FIG. 8A/8B
From the text: as §1, §2

[4] = tested on: PC3 cells; assay: Invasion ability of PC3 cells

Compound	cell migration ability [1]	expression of TMS1 [2]	expression of SPDEF (PDEF) mRNA [3]	invasion ability [4]
Nc1ncn([C@H]2C[C@H](O)[C@@H](CO)O2)c(=O)n1 [5-Aza, 5-aza-2′-deoxycytidine]	reduced	induced	induced	reduced
CCCC(CCC)C(=O)O [VPA, valproic acid]	–	–	did not alter	–
